The text below walks through data of patent US20240082296A1, “TREATMENT OF MUSCLE ATROPHY USING DEXTRAN SULFATE” (TX MEDIC AB, priority 2020, published 2024).

One assay has as its system ALS patients. Nature of the assay: serum metabolites by HPLC pre- and post-treatment in ALS patients (Example 3). Format: in vivo, human. From the text: The objective of this Example was to evaluate the effect of repeated dextran sulfate administration on the concentrations of serum metabolites in serum samples from a cohort of Swedish ALS patients who had participated in the trial entitled ‘A single-centre, open single-arm study where the safety, tolerability and efficacy of subcutaneously administered ILB® will be evaluated in patients with Amyotrophic Lateral Sclerosis’. Using a longitudinal design, this study aimed to determine the changes of selected serum metabolites in each ALS patient before and after weekly dextran sulfate treatment. Changes in the measured metabolites indicate the biochemical response of the patient to dextran sulfate that is underpinning potential disease modification and the mechanisms of action of the drug in this patient population.
After an initial screening visit, patients had five weekly dosing of a single dextran sulfate (ILB®, Tikomed AB, Viken, Sweden, WO 2016/076780) injection of 1.0 mg/kg body weight in saline into the subcutaneous fat of the lower abdomen.
Peripheral venous blood samples were been collected from the patients after at least 15 minutes of complete rest, using the standard tourniquet procedure, from the antecubital vein into a single VACUETTE® polypropylene tube containing serum separator and clot activator (Greiner-Bio One GmbH, Kremsmunster, Austria). After 30 minutes at room temperature, blood withdrawals were centrifuged at 1,890×g for 10 min and the resulting serum samples were stored at −20° C. until analysis.
After defrost, an aliquot of 500 μl of each serum sample was supplemented with 1 ml of HPLC-grade acetonitrile, vortexed for 60 seconds, centrifuged at the maximum speed in a top-bench centrifuge to precipitate proteins. Supernatants were washed with large volumes of HPLC-grade chloroform to remove organic solvent, centrifuged and the upper aqueous phases were transferred in different tubes, clearly labeled to identify the sample and stored at −80° C. until analyzed to determine different water-soluble compounds.
A second aliquot of about 300 μl of each serum sample was light-protected and then processed to extract fat-soluble antioxidants using a method described in detail elsewhere (Lazzarino et al., Single-step preparation of selected biological fluids for the high performance liquid chromatographic analysis of fat-soluble vitamins and antioxidants. J Chromatogr A. 2017; 1527: 43-52.). Briefly, samples were supplemented with 1 ml of HPLC-grade acetonitrile, vigorously vortexed for 60 s and incubated at 37° C. for 1 h in a water bath under agitation, to allow the full extraction of lipid soluble compounds. Samples were then centrifuged at 20,690×g for 15 min at 4 C to precipitate proteins and the clear supernatants were saved at −80° C. until the HPLC analysis of fat-soluble vitamins and antioxidants.
In deproteinized serum samples, the following water-soluble compounds were separated and quantified by HPLC, according to methods described elsewhere (Tavazzi et al., Simultaneous high performance liquid chromatographic separation of purines, pyrimidines, N-acetylated amino acids, and dicarboxylic acids for the chemical diagnosis of inborn errors of metabolism. Clin Biochem. 2005; 38: 997-1008; Romitelli et al., Comparison of nitrite/nitrate concentration in human plasma and serum samples measured by the enzymatic batch Griess assay, ion-pairing HPLC and ion-trap GC-MS: The importance of a correct removal of proteins in the Griess assay. J Chromatogr B Analyt Technol Biomed Life Sci. 2007; 851: 257-267; Amorini et al., Metabolic profile of amniotic fluid as a biochemical tool to screen for inborn errors of metabolism and fetal anomalies. Mol Cell Biochem. 2012; 359: 205-216): hypoxhantine, xanthine, uric acid, malondialdehyde (MDA), nitrite, nitrate, N-acetylaspartate (NAA), citrulline (CITR), alanine (ALA), and ornithine (ORN). […]

Assay [1] has as its system patients with ALS. As to the kind of experiment: Phase IIa trial in ALS patients: serum myoglobin and creatine kinase (Example 2). Format: in vivo, human. As to the method: (§1) A clinical trial in the form of a Phase IIa, single-center, open label, single-arm study where the safety, tolerability and possible efficacy of subcutaneously administered dextran sulfate was evaluated in patients with ALS of intermediate progression rate. The clinical trial was conducted at the Sahlgrenska University Hospital, Gothenburg, Sweden and was overseen and approved by the Ethics Committee of the University of Gothenburg and by the Swedish Medical Products Agency.
(§2) Dextran sulfate (Tikomed AB, Viken, Sweden, WO 2016/076780) was administered at 1 mg/kg by […] subcutaneous injection once a week for five weeks to 13 human patients suffering from ALS.
Blood samples were drawn at defined study intervals by a venous catheter into vacutainer tubes. Laboratory analyses of blood plasma were performed immediately after collection by the Clinical Chemistry Laboratory at the Sahlgrenska University Hospital.

Assay [2] relates to human patients suffering from ALS. As to the kind of experiment: serum lactate in ALS patients before and after dextran sulfate (Example 1). Type of assay: in vivo. Particulars: 2 mg/kg s.c. once a week; for serum lactate levels: week 0: 1.78±0.59. From the text: Using a longitudinal design, this study was aimed to determine the changes of selected serum metabolites in ALS patients before dextran sulfate administration and after different times following the beginning of the treatment. Changes in the measured metabolites indicated the biochemical response of the patient to dextran sulfate that is underpinning potential disease modification and the mechanisms of action of the drug in this ALS patient population.
Dextran sulfate (Tikomed AB, Viken, Sweden, WO 2016/076780) was administered at 2 mg/kg by […] subcutaneous injection once a week for ten weeks to 8 human patients suffering from ALS.
Peripheral venous blood samples were collected from patients before (week 0) and after dextran sulfate administration (week 5 and week 10) after at least 15 minutes of complete rest, using the standard tourniquet procedure, from the antecubital vein into a single VACUETTE® polypropylene tube containing serum separator and clot activator (Greiner-Bio One GmbH, Kremsmunster, Austria). After 30 mins at room temperature (20-25° C.), blood withdrawals were centrifuged at 1,890×g for 10 min to get serum aliquots.
A serum aliquot of 500 μl was supplemented with 1 ml of HPLC-grade acetonitrile, vortexed for 60 secs, centrifuged at the maximum speed in a top-bench centrifuge to precipitate proteins. Supernatants were washed with large volumes of HPLC-grade chloroform to remove organic solvent, centrifuged and the upper aqueous phases were transferred to different tubes, clearly labeled to identify the sample and stored at −80° C. until analyzed to determine different water-soluble compounds.

The test system of assay [3] is patients with ALS. As to the kind of experiment: clinical observation of muscle function (ALSFRS-R) in ALS patients (Example 2). Type of assay: in vivo, human. As to conditions: during the five-week treatment period; 1 mg/kg s.c. weekly. As to the method: as §1, §2
ALSFRS-R was assessed pre-treatment and weekly thereafter for the 5 treatment weeks and for the visits at the follow-up period.
The biochemical evidence of reduced muscle degeneration supports the clinical observations of improved muscle function. For example, in the ALSFRS-R, functions mediated by cervical, trunk, lumbosacral, and respiratory muscles are each assessed by 3 items and scores in these categories show close agreement with objective measures of muscle strength.

[4] abbreviates: post- vs pre-treatment, five weekly 1.0 mg/kg s.c.

With dextran sulfate, in the assay with ALS patients (setting [4]), the “serum CITR” value is on record as “ameliorated”, the “serum MDA” value is listed as “decreased”, the “serum NAA” value is “Significantly lower” and the “serum ORN/CITR ratio” value is “ameliorated”. For the same substance, in the assay on ALS patients (setting [4]), the serum nitrate result is given as “decreased”, the “serum nitrite+nitrate” value was “decreased”, the “serum sum of oxypurines (hypoxanthine+xanthine+uric acid)” value is recorded as “decreased” and the serum uric acid result is on record as “decreased”. Moreover, in the assay on ALS patients (setting [4]), the “serum α-tocopherol” value is “ameliorated” and the “serum γ-tocopherol” value is reported as “ameliorated”. Besides, the “circulating values of ALA” value with ALS patients (post-treatment, equal to controls, significantly lower than pre-treatment) is “normalized”. Also, the “reduction in serum creatine kinase levels” value in the assay on patients with ALS [1] (after 4 weeks) is listed as 13.3%. In addition, in the assay with patients with ALS [1] (after 4 weeks vs Day 1), the “reduction in serum myoglobin levels” value turned out to be 30%. In the assay with patients with ALS [1] (after 4 weeks, 1 mg/kg s.c. once a week, Day 1: 133.92±126.28, p=0.021), this substance yielded a serum myoglobin levels of 103.69 ± 72.16 µg/L. For the same substance, the “serum creatine kinase levels” value with patients with ALS [1] (after 4 weeks, 1 mg/kg s.c. once a week, before 7.15±5.74, p<0.05) came to 6.2±5.08 μkat/L. Besides, the “increase of serum lactate levels” value in assay [2] (after 5 weeks vs week 0) was 29.8%. This substance had a serum lactate levels in assay [2] (after 5 weeks, p<0.01) of 2.31 ± 1.02 mM. Further, the “increase of serum lactate levels” value in assay [2] (after 10 weeks vs week 0) stood at 70%. The serum lactate levels in assay [2] (after 10 weeks) turned out to be 3.02 ± 1.59 mM. Moreover, in the assay on patients with ALS [3], the “severe bulbar paresis in two patients” value was “almost complete resolution”.
